The text below walks through data of ChEMBL document CHEMBL3259530, “Scaffold hopping approach to a new series of smoothened antagonists” (Bioorg Med Chem Lett, 2014).

One may read the IC50 as the concentration that gives 50% inhibition.

Structures are written as SMILES. A value given as a limit tells only on which side of the number the result lay.

The experiment deals with Protein smoothened (Homo sapiens, UniProt Q99835). Description: Inhibition of Smo receptor (unknown origin) expressed in NIH3T3 cells assessed as inhibition of Smo agonist SAG-induced GRE activation after 30 hrs by luciferase reporter gene assay. The format is cell-based. (In general: Reporter assays use an easily measured gene product as a stand-in for the process of interest.)
Protein smoothened, sequence (Q99835 whole entry): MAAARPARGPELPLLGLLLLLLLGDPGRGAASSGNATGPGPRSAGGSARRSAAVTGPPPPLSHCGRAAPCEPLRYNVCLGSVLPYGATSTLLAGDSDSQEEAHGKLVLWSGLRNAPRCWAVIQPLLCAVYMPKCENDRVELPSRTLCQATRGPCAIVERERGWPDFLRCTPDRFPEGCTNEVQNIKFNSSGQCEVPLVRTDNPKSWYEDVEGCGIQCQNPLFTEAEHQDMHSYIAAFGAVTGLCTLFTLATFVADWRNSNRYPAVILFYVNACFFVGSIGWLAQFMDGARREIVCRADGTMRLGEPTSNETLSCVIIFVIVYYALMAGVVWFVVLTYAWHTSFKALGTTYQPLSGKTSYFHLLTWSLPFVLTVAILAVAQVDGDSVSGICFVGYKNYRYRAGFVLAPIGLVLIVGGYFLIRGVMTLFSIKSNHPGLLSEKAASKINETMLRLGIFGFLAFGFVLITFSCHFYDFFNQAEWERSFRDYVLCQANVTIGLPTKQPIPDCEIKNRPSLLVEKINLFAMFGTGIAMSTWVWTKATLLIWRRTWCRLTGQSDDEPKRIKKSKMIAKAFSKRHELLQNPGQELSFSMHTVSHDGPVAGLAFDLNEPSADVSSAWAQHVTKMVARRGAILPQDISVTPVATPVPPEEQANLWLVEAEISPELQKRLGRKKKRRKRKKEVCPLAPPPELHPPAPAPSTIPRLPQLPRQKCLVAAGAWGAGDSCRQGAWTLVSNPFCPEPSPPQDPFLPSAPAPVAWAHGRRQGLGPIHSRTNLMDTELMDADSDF
As to `CCNC(=O)c1cn2c(n1)CN(c1cc(-c3ncc(C)cc3C)c(Cl)cn1)CC2`, the IC50 is 1300 nM.
The figure for `CCOC(=O)c1cn2c(n1)CN(c1cc(-c3ncc(C)cc3C)c(Cl)cn1)CC2` is 690 nM; for `Cc1cnc(-c2cc(N3CCn4cc(C(=O)O)nc4C3)ncc2Cl)c(C)c1` it is above 10000 nM; for `CNC(=O)c1cn2c(n1)CN(c1cc(-c3ncc(C)cc3C)c(Cl)cn1)CC2` it is 2700 nM.
With `Cc1cnc(-c2cc(N3CCn4cc(C(=O)NCC5CC5)nc4C3)ncc2Cl)c(C)c1` the figure was 520 nM.
Turning to `Cc1cnc(-c2cc(N3CCn4cc(C(=O)N(C)CCO)nc4C3)ncc2Cl)c(C)c1`, the IC50 was 4100 nM.
The figure for `Cc1cnc(-c2cc(N3CCn4cc(C(=O)N5CCCC5)nc4C3)ncc2Cl)c(C)c1` is 270 nM.
With `Cc1cnc(-c2cc(N3CCn4cc(C(=O)N5CCOCC5)nc4C3)ncc2Cl)c(C)c1` the figure was 790 nM; with `Cc1cnc(-c2cc(N3CCn4cc(C(=O)N5CC(O)C5)nc4C3)ncc2Cl)c(C)c1`, above 10000 nM.
The figure for `Cc1cnc(-c2cc(N3CCn4cc(C(=O)N5CCC(O)C5)nc4C3)ncc2Cl)c(C)c1` (centres undefined) is above 10000 nM; for `COC[C@H]1CCCN1C(=O)c1cn2c(n1)CN(c1cc(-c3ncc(C)cc3C)c(Cl)cn1)CC2` it is 550 nM.
Regarding `Cc1cnc(-c2cc(N3CCn4cc(C(=O)N5CCC(O)CC5)nc4C3)ncc2Cl)c(C)c1`, the IC50 was 1200 nM.
Take `Cc1cnc(-c2cc(N3CCn4cc(C(=O)N5CC(C)NC(C)C5)nc4C3)ncc2Cl)c(C)c1` (centres undefined): the IC50 amounted to 1500 nM.
As to `Cc1cnc(-c2cc(N3CCn4cc(C(=O)Nc5ccccc5)nc4C3)ncc2Cl)c(C)c1`, the half-inhibitory concentration (IC50) turned out to be 300 nM.
In the case of `Cc1cnc(-c2cc(N3CCn4cc(C(=O)Nc5ccccc5F)nc4C3)ncc2Cl)c(C)c1`, the IC50 came to 350 nM.
The figure for `Cc1cnc(-c2cc(N3CCn4cc(C(=O)Nc5cccc(F)c5)nc4C3)ncc2Cl)c(C)c1` is 87 nM; for `Cc1cnc(-c2cc(N3CCn4cc(C(=O)Nc5ccc(F)cc5)nc4C3)ncc2Cl)c(C)c1` it is 440 nM.
With `Cc1cnc(-c2cc(N3CCn4cc(C(=O)Nc5ccc(F)c(F)c5)nc4C3)ncc2Cl)c(C)c1` the figure was 420 nM; with `Cc1cnc(-c2cc(N3CCn4cc(C(=O)Nc5ccccn5)nc4C3)ncc2Cl)c(C)c1`, 270 nM; with `Cc1cnc(-c2cc(N3CCn4cc(C(=O)Nc5cccnc5)nc4C3)ncc2Cl)c(C)c1`, 200 nM.
With `Cc1cnc(-c2cc(N3CCn4cc(C(=O)OC(C)C)nc4C3)ncc2Cl)c(C)c1` the figure was 380 nM; with `Cc1cnc(-c2cc(N3CCn4cc(C(=O)OCC5CC5)nc4C3)ncc2Cl)c(C)c1`, 270 nM.
`Cc1cnc(-c2cc(N3CCn4cc(C(=O)OC5CCCC5)nc4C3)ncc2Cl)c(C)c1`: the IC50 came to 740 nM.
Take `Cc1cnc(-c2cc(N3CCn4cc(C(=O)Oc5ccccc5)nc4C3)ncc2Cl)c(C)c1`: the IC50 was found to be 960 nM.
The figure for `Cc1cnc(-c2cc(N3CCn4cc(CO)nc4C3)ncc2Cl)c(C)c1` is 4100 nM; for `Cc1cnc(-c2cc(N3CCn4cc(CN5CCOCC5)nc4C3)ncc2Cl)c(C)c1` it is 910 nM.
The figure for `Cc1cnc(-c2cc(N3CCn4cc(NC(=O)C(F)(F)F)nc4C3)ncc2Cl)c(C)c1` is 1800 nM.
The figure for `CCC(=O)Nc1cn2c(n1)CN(c1cc(-c3ncc(C)cc3C)c(Cl)cn1)CC2` is 890 nM; for `COCC(=O)Nc1cn2c(n1)CN(c1cc(-c3ncc(C)cc3C)c(Cl)cn1)CC2` it is 650 nM.
